Laboratory results from patent publication US20250312462A1, “PAK1 DEGRADERS AND METHODS OF USE THEREOF” (INSTITUTE FOR CANCER RESEARCH D/B/A THE RESEARCH INSTITUTE …, priority 2022, published 2025).

How the values were obtained:
GAK = GAK (Homo sapiens, UniProt O14976); assay: KINOMEscan; settings: read-out: Percent Control
Description: (§1) The kinase engagement assay (KINOMEscan®) was performed by DiscoverX assessing binding abilities toward a set of kinases.

BMX = BMX (Homo sapiens, UniProt P51813); assay: KINOMEscan; settings: read-out: Percent Control
Description: as §1

[1] = target: RPS6KA4(Kin.Dom.2-C-terminal) (Homo sapiens, UniProt O75676); assay: KINOMEscan; settings: read-out: Percent Control
Description: as §1

PAK7 = PAK7 (Homo sapiens, UniProt Q9P286); assay: KINOMEscan; settings: read-out: Percent Control
Description: as §1

EPHB2 = EPHB2 (Homo sapiens, UniProt P29323); assay: KINOMEscan; settings: read-out: Percent Control
Description: as §1

ALK(C1156Y) = ALK(C1156Y) (Homo sapiens, UniProt Q9UM73, C1156Y); assay: KINOMEscan; settings: read-out: Percent Control
Description: as §1

MET(M1250T) = MET(M1250T) (Homo sapiens, UniProt P08581, M1250T); assay: KINOMEscan; settings: read-out: Percent Control
Description: as §1

MKNK2 = MKNK2 (Homo sapiens, UniProt Q9HBH9); assay: KINOMEscan; settings: read-out: Percent Control
Sequence of MKNK2 (Q9HBH9 whole entry): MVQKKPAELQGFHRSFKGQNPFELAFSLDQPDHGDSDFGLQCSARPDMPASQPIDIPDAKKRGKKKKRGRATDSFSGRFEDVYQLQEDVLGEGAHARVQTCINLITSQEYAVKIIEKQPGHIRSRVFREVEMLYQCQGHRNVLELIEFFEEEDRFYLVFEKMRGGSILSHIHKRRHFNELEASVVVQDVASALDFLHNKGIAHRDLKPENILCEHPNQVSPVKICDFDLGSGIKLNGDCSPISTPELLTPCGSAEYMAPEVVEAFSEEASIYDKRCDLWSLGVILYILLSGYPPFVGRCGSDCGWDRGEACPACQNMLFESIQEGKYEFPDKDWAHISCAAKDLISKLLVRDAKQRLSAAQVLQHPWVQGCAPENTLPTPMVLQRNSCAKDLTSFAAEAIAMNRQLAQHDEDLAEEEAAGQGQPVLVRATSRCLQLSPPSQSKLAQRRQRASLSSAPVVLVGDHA
Description: as §1

MAST1 = MAST1 (Homo sapiens, UniProt Q9Y2H9); assay: KINOMEscan; settings: read-out: Percent Control
Description: as §1

ICK = ICK (Homo sapiens, UniProt Q9UPZ9); assay: KINOMEscan; settings: read-out: Percent Control
Description: as §1

TAOK1 = TAOK1 (Homo sapiens, UniProt Q7L7X3); assay: KINOMEscan; settings: read-out: Percent Control
Sequence of TAOK1 (Q7L7X3 whole entry): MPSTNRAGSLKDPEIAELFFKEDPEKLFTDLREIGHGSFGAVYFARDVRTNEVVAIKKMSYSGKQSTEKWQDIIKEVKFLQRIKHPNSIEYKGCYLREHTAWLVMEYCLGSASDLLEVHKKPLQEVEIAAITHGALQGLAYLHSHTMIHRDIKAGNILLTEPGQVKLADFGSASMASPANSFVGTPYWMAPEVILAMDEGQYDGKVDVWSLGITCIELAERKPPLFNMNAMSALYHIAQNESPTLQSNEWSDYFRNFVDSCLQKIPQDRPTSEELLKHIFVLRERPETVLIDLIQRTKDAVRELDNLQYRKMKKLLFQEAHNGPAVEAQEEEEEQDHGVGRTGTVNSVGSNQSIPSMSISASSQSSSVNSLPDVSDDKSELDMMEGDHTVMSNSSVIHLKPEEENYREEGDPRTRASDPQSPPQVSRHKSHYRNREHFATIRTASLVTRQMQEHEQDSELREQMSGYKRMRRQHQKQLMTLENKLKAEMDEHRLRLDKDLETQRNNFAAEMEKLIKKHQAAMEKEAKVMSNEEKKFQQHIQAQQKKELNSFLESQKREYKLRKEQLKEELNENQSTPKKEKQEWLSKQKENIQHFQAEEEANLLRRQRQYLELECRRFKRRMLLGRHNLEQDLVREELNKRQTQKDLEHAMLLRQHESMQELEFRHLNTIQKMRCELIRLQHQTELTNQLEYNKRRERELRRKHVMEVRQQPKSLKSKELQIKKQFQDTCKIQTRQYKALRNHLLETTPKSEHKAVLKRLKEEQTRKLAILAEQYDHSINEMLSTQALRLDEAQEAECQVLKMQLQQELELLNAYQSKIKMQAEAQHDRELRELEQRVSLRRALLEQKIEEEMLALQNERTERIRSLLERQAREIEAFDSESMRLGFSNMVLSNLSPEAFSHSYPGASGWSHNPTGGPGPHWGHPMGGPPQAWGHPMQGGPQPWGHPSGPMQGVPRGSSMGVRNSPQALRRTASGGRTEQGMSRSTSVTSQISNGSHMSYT
Description: as §1

CSNK1G1 = CSNK1G1 (Homo sapiens, UniProt Q9HCP0); assay: KINOMEscan; settings: read-out: Percent Control
Sequence of CSNK1G1 (Q9HCP0 whole entry): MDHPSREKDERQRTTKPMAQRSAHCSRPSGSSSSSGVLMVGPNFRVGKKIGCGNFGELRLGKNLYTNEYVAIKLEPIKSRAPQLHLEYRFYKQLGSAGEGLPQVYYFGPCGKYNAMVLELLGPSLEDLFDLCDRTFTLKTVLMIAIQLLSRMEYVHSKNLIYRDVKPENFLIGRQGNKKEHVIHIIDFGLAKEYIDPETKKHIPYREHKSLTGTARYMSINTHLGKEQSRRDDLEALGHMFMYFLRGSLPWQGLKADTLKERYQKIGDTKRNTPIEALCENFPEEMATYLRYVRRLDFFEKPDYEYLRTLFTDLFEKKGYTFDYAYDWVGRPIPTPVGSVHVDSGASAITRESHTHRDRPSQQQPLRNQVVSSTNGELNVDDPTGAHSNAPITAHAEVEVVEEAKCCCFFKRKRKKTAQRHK
Description: as §1

FGFR2 = FGFR2 (Homo sapiens, UniProt P21802); assay: KINOMEscan; settings: read-out: Percent Control
Description: as §1

EPHB3 = EPHB3 (Homo sapiens, UniProt P54753); assay: KINOMEscan; settings: read-out: Percent Control
Description: as §1

ULK2 = ULK2 (Homo sapiens, UniProt Q8IYT8); assay: KINOMEscan; settings: read-out: Percent Control
Sequence of ULK2 (Q8IYT8 whole entry): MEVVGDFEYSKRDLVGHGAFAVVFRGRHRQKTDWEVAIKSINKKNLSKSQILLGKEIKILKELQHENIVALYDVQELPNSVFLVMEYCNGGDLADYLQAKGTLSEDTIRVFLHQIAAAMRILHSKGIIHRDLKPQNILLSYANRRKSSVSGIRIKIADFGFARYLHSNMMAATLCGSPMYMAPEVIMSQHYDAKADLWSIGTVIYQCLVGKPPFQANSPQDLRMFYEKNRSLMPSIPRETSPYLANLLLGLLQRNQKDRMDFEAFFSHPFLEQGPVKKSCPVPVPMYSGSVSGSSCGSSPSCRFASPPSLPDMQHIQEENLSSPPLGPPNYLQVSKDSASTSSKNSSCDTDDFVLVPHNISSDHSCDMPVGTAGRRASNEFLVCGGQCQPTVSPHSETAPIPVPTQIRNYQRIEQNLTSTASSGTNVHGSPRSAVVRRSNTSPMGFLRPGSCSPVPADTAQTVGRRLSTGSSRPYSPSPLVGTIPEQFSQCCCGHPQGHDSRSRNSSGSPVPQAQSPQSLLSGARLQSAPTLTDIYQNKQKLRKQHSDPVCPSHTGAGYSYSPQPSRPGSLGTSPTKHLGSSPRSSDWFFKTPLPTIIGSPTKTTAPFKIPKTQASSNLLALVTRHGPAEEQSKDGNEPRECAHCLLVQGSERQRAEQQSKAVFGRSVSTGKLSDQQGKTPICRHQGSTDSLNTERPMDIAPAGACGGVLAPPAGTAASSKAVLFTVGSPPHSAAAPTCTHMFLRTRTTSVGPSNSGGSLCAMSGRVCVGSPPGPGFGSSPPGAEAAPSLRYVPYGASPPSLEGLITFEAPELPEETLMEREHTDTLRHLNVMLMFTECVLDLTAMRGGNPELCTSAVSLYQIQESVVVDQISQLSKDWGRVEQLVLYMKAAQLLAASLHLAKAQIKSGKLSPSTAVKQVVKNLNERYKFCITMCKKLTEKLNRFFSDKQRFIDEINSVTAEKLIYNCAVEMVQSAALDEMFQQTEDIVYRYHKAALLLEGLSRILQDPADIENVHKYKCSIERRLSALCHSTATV
Description: as §1

AURKC = AURKC (Homo sapiens, UniProt Q9UQB9); assay: KINOMEscan; settings: read-out: Percent Control
Description: as §1

PAK1 = PAK1 (Homo sapiens, UniProt Q13153); assay: PAK1 degradation in Panc1 cells, Western blot; assay type: cell-based; parameters: endogenous in cells; settings: compared with BJG-05-014 and BJG-05-027
Description: In vitro kinase assays were performed using recombinant PAK1 and PAK2, using a library of small molecule protein kinase inhibitors. […] FIG. 1C is a series of Western blots showing the degradation of PAK1 in Panc1 cells by the NVS-PAK1-1-based (allosteric) degraders BJG-05-014, BJG-05-027, and BJG-05-039. Quantification is shown below in the bar graph. FIG. 1D is a series of Western blots showing PAK1, PAK2, and GAPDH in Panc1 cells treated with the indicated amounts of the NVS-PAK1-1-based degrader BJG-05-039 and ATP-competitive degraders BJG-05-093, BJG-05-094, and BJG-05-095.
BJG-05-014, BJG-05-027, and BJG-05-039 were tested in Panc1 cells for their ability to degrade PAK1.

DDR2 = DDR2 (Homo sapiens, UniProt Q16832); assay: KINOMEscan; settings: read-out: Percent Control
Description: as §1

AXL = AXL (Homo sapiens, UniProt P30530); assay: KINOMEscan; settings: read-out: Percent Control
Sequence of AXL (P30530 26-894): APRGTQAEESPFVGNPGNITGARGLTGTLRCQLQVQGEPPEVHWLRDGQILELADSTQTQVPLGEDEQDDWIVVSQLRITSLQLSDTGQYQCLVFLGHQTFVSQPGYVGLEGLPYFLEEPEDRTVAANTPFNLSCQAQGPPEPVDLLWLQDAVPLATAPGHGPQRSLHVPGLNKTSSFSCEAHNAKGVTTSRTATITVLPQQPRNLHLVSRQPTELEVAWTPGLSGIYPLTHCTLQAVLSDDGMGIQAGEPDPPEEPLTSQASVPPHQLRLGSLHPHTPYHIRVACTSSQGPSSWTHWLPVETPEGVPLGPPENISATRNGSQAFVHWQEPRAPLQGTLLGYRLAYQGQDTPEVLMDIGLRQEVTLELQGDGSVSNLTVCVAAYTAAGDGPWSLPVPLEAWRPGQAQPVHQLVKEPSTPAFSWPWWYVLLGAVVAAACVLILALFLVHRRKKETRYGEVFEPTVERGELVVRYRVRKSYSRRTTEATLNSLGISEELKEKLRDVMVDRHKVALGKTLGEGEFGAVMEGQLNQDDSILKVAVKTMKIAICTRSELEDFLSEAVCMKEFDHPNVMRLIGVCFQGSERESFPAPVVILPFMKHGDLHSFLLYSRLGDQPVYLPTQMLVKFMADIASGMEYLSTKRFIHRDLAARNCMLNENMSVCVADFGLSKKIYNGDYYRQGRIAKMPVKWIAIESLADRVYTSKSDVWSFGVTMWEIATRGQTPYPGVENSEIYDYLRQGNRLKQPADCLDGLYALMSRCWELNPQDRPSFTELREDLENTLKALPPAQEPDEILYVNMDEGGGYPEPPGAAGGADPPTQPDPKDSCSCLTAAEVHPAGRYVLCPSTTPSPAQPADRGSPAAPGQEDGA
Description: as §1

PIM1 = PIM1 (Homo sapiens, UniProt P11309); assay: KINOMEscan; settings: read-out: Percent Control
Description: as §1

CAMK1B = CAMK1B (Homo sapiens, UniProt Q6P2M8); assay: KINOMEscan; settings: read-out: Percent Control
Description: as §1

TRKC = TRKC (Homo sapiens, UniProt Q16288); assay: KINOMEscan; settings: read-out: Percent Control
Description: as §1

CHEK1 = CHEK1 (Homo sapiens, UniProt O14757); assay: KINOMEscan; settings: read-out: Percent Control
Sequence of CHEK1 (O14757 whole entry): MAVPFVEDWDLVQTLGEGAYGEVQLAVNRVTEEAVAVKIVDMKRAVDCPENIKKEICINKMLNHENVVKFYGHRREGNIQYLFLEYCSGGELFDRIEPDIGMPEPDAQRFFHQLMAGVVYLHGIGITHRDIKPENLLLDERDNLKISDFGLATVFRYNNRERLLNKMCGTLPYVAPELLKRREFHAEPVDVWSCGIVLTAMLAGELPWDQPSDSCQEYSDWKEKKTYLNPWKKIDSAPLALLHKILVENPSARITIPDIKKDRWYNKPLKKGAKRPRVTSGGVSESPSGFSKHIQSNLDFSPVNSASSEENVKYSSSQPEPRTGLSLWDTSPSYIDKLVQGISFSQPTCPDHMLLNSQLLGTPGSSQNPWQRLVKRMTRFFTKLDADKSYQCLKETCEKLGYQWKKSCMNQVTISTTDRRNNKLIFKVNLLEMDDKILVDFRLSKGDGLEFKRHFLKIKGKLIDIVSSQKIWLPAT
Description: as §1

DCAMKL1 = DCAMKL1 (Homo sapiens, UniProt O15075); assay: KINOMEscan; settings: read-out: Percent Control
Sequence of DCAMKL1 (O15075 whole entry): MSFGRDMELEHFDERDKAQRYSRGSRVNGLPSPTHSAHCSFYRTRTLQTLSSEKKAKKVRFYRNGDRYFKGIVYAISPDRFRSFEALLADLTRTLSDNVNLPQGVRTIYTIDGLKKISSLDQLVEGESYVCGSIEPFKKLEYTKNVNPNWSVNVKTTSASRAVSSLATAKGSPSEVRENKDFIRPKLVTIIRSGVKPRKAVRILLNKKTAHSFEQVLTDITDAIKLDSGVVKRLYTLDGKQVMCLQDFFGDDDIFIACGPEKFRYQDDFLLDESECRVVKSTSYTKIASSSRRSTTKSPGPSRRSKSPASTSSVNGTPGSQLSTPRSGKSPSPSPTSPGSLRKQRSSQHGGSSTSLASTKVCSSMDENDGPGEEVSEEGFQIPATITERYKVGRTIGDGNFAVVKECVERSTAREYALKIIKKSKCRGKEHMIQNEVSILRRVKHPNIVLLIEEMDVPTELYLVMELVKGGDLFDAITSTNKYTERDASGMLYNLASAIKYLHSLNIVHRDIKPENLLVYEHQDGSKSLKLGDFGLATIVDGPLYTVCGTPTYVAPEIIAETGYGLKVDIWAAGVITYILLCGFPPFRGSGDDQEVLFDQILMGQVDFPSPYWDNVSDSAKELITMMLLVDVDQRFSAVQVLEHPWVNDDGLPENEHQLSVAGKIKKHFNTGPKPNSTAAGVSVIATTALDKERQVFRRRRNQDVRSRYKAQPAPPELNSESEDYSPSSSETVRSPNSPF
Description: as §1

INSRR = INSRR (Homo sapiens, UniProt P14616); assay: KINOMEscan; settings: read-out: Percent Control
Description: as §1

FLT3(K663Q) = FLT3(K663Q) (Homo sapiens, UniProt P36888, K663Q); assay: KINOMEscan; settings: read-out: Percent Control
Description: as §1

FRK = FRK (Homo sapiens, UniProt P42685); assay: KINOMEscan; settings: read-out: Percent Control
Description: as §1

VRK2 = VRK2 (Homo sapiens, UniProt Q86Y07); assay: KINOMEscan; settings: read-out: Percent Control
Description: as §1

MYO3A = MYO3A (Homo sapiens, UniProt Q8NEV4); assay: KINOMEscan; settings: read-out: Percent Control
Description: as §1

FLT3(D835V) = FLT3(D835V) (Homo sapiens, UniProt P36888, D835V); assay: KINOMEscan; settings: read-out: Percent Control
Description: as §1

**Q.** With O=C1CCC(N2C(=O)c3cccc(NCCCCCCCCNC(=O)N4CC[C@H](NC5=Nc6cc(F)ccc6N(CC(F)F)c6ccc(Cl)cc65)C4)c3C2=O)C(=O)N1 (stereo partly drawn) [BJG-05-039, (3S)-3-((2-Chloro-5-(2,2-difluoroethyl)-8-fluoro-5H-dibenzo[b,e][1,4]diazepin-11-yl)amino)-N-(8-((2-(2,6-dioxopiperidin-3-yl)-1,3-dioxoisoindolin-4-yl)amino)octyl)pyrrolidine-1-carboxamide] as the compound, how does the remaining binding at 10 µM (GAK) read?
**A.** The remaining binding at 10 µM was 56%.

**Q.** What about the remaining binding at 10 µM (BMX) of the same compound?
**A.** The remaining binding at 10 µM was 90%.

**Q.** And the remaining binding at 10 µM [1]?
**A.** Its remaining binding at 10 µM is 99%.

**Q.** What about the remaining binding at 10 µM (PAK7) of the same compound?
**A.** Its remaining binding at 10 µM is 42%.

**Q.** What about the remaining binding at 10 µM (EPHB2) of the same compound?
**A.** Its remaining binding at 10 µM is 74%.

**Q.** And the remaining binding at 10 µM (ALK(C1156Y))?
**A.** Its remaining binding at 10 µM is 100%.

**Q.** What about the remaining binding at 10 µM (MET(M1250T)) of the same compound?
**A.** The remaining binding at 10 µM was 61%.

**Q.** What about the remaining binding at 10 µM (MKNK2) of the same compound?
**A.** The remaining binding at 10 µM was 94%.

**Q.** What about the remaining binding at 10 µM (MAST1) of the same compound?
**A.** Its remaining binding at 10 µM is 71%.

**Q.** And the remaining binding at 10 µM (ICK)?
**A.** Its remaining binding at 10 µM is 99%.

**Q.** And the remaining binding at 10 µM (TAOK1)?
**A.** The remaining binding at 10 µM was 95%.

**Q.** And the remaining binding at 10 µM (CSNK1G1)?
**A.** Its remaining binding at 10 µM is 52%.

**Q.** And the remaining binding at 10 µM (FGFR2)?
**A.** The remaining binding at 10 µM was 77%.

**Q.** What about the remaining binding at 10 µM (EPHB3) of the same compound?
**A.** The remaining binding at 10 µM was 89%.

**Q.** And the remaining binding at 10 µM (ULK2)?
**A.** The remaining binding at 10 µM was 82%.

**Q.** And the remaining binding at 10 µM (AURKC)?
**A.** The remaining binding at 10 µM was 83%.

**Q.** And the “Ability to degrade PAK1” value (PAK1)?
**A.** Its value is “most promising profile”.

**Q.** And the remaining binding at 10 µM (DDR2)?
**A.** The remaining binding at 10 µM was 86%.

**Q.** What about the remaining binding at 10 µM (AXL) of the same compound?
**A.** Its remaining binding at 10 µM is 49%.

**Q.** And the remaining binding at 10 µM (PIM1)?
**A.** The remaining binding at 10 µM was 75%.

**Q.** What about the remaining binding at 10 µM (CAMK1B) of the same compound?
**A.** Its remaining binding at 10 µM is 87%.

**Q.** And the remaining binding at 10 µM (TRKC)?
**A.** Its remaining binding at 10 µM is 100%.

**Q.** And the remaining binding at 10 µM (CHEK1)?
**A.** The remaining binding at 10 µM was 57%.

**Q.** And the remaining binding at 10 µM (DCAMKL1)?
**A.** Its remaining binding at 10 µM is 77%.

**Q.** And the remaining binding at 10 µM (INSRR)?
**A.** The remaining binding at 10 µM was 65%.

**Q.** What about the remaining binding at 10 µM (FLT3(K663Q)) of the same compound?
**A.** Its remaining binding at 10 µM is 59%.

**Q.** What about the remaining binding at 10 µM (FRK) of the same compound?
**A.** The remaining binding at 10 µM was 67%.

**Q.** What about the remaining binding at 10 µM (VRK2) of the same compound?
**A.** The remaining binding at 10 µM was 94%.

**Q.** What about the remaining binding at 10 µM (MYO3A) of the same compound?
**A.** Its remaining binding at 10 µM is 67%.

**Q.** And the remaining binding at 10 µM (FLT3(D835V))?
**A.** The remaining binding at 10 µM was 76%.
